# Data as given in ChEMBL document CHEMBL4342522 (J Med Chem, 2020).
# How the values were obtained:
# [1] = Unbound hepatic clearance in mouse liver microsomes; format: ADME, Microsome
# [2] = Unbound hepatic clearance in rat liver microsomes; format: ADME, Microsome
# [3] = Unbound hepatic clearance in human liver microsomes; format: ADME, Microsome
# NCI-H1299 = assay: Antiproliferative activity against human H1299 cells assessed as reduction in cell viability after 5 days by CellTiter-Glo assay; format: functional, cell-based; details: NCI-H1299, 120 h
# [4] = biological target: T1, Bromodomain-containing protein 4 (Homo sapiens, UniProt O60885); assay: biochemical; format: cell-based
# Description: Inhibition of human N-terminal His6 tagged BRD4 BD1 (57 to 168) residues expressed in Escherichia coli BL21(DE3) cells after 1 hr by TR-FRET assay
# [5] = Permeability in dog MDCK cells by PAMPA; format: ADME, cell-based, Canis lupus familiaris; details: read-out: permeability
# SKM-1 = assay: Antiproliferative activity against human SKM1 cells assessed as reduction in cell viability after 5 days by CellTiter-Glo assay; format: functional, cell-based; details: SKM-1, 120 h
# [6] = biological target: T1, Bromodomain-containing protein 4; assay: Inhibition of human N-terminal His6 tagged BRD4 BD2 (352 to 457) residues expressed in Escherichia coli BL21(DE3) cells after 1 hr by TR-FRET assay
smiles,measurement,setting,value
Cc1cc(F)cc(C)c1Oc1ccc(C(C)(C)O)cc1-c1cn(C)c(=O)c2[nH]c(C(=O)NC3CC3)cc12,CL free,[1],3330 mL/min/kg
same,CL free,[2],333 mL/min/kg
same,CL free,[3],800 mL/min/kg
same,IC50,NCI-H1299,1900 nM
same,Ki,[4],230 nM
same,Papp,[5],1.13 ×10⁻⁶ cm/s
same,IC50,SKM-1,6.2 nM
same,Ki,[6],0.5 nM
CCNC(=O)c1cc2c(-c3cc(S(=O)(=O)CC)ccc3-n3ccc4cccc(C)c43)cn(C)c(=O)c2[nH]1,CL free,[1],1830 mL/min/kg
same,CL free,[2],1550 mL/min/kg
same,CL free,[3],700 mL/min/kg
same,IC50,NCI-H1299,1900 nM
same,Ki,[4],380 nM
same,Papp,[5],14.7 ×10⁻⁶ cm/s
same,IC50,SKM-1,23 nM
same,Ki,[6],1.1 nM
CCNC(=O)c1cc2c(-c3cc(S(C)(=O)=O)ccc3Nc3c(C)cccc3C)cn(C)c(=O)c2[nH]1,CL free,[1],483 mL/min/kg
same,CL free,[2],433 mL/min/kg
same,CL free,[3],117 mL/min/kg
same,IC50,NCI-H1299,3600 nM
same,Ki,[4],250 nM
same,Papp,[5],3.59 ×10⁻⁶ cm/s
same,IC50,SKM-1,68 nM
same,Ki,[6],4.3 nM
CCNC(=O)c1cc2c(-c3cc(S(=O)(=O)CC)ccc3Oc3ccccc3C)cn(C)c(=O)c2[nH]1,CL free,[1],1100 mL/min/kg
same,CL free,[3],142 mL/min/kg
same,IC50,NCI-H1299,95 nM
same,Ki,[4],8.4 nM
same,Papp,[5],3.68 ×10⁻⁶ cm/s
same,IC50,SKM-1,3.3 nM
same,Ki,[6],0.8 nM
Cc1cc(F)cc(C)c1Oc1ccc(C(C)(C)O)cc1-c1cn(C)c(=O)c2[nH]c(C(=O)NC(C)(C)C(F)(F)F)cc12,CL free,[1],46700 mL/min/kg
same,CL free,[2],18300 mL/min/kg
same,CL free,[3],9500 mL/min/kg
same,IC50,NCI-H1299,2600 nM
same,Papp,[5],0.57 ×10⁻⁶ cm/s
same,IC50,SKM-1,80 nM
CCNC(=O)c1cc2c(-c3cc(S(=O)(=O)CC)ccc3-c3ccccc3C)cn(C)c(=O)c2[nH]1,CL free,[1],750 mL/min/kg
same,CL free,[2],350 mL/min/kg
same,CL free,[3],112 mL/min/kg
same,IC50,NCI-H1299,2600 nM
same,Ki,[4],180 nM
same,Papp,[5],10.3 ×10⁻⁶ cm/s
same,IC50,SKM-1,9.5 nM
same,Ki,[6],1.1 nM
CCNC(=O)c1cc2c(-c3cc(S(=O)(=O)CC)ccc3Oc3cc(C)cc(C)c3)cn(C)c(=O)c2[nH]1,CL free,[1],1600 mL/min/kg
same,CL free,[2],1620 mL/min/kg
same,CL free,[3],533 mL/min/kg
same,IC50,NCI-H1299,94 nM
same,Ki,[4],8.3 nM
same,Papp,[5],3.1 ×10⁻⁶ cm/s
same,IC50,SKM-1,2.6 nM
same,Ki,[6],0.7 nM
CCNC(=O)c1cc2c(-c3cc(NC(=O)OC)ccc3Oc3c(C)cc(F)cc3C)cn(C)c(=O)c2[nH]1,CL free,[1],6330 mL/min/kg
same,CL free,[3],550 mL/min/kg
same,IC50,NCI-H1299,2400 nM
same,Ki,[4],290 nM
same,Papp,[5],0.92 ×10⁻⁶ cm/s
same,IC50,SKM-1,50 nM
same,Ki,[6],2.9 nM
CCNC(=O)c1cc2c(-c3cc(S(=O)(=O)CC)ccc3Oc3c(C)cccc3C(F)(F)F)cn(C)c(=O)c2[nH]1,CL free,[1],900 mL/min/kg
same,CL free,[2],200 mL/min/kg
same,CL free,[3],75 mL/min/kg
same,IC50,NCI-H1299,1200 nM
same,Ki,[4],470 nM
same,Papp,[5],15.2 ×10⁻⁶ cm/s
same,IC50,SKM-1,28 nM
same,Ki,[6],5.8 nM
CCNC(=O)c1cc2c(-c3cc(S(=O)(=O)CC)ccc3Oc3c(C)cccc3C#N)cn(C)c(=O)c2[nH]1,CL free,[1],817 mL/min/kg
same,CL free,[2],1530 mL/min/kg
same,CL free,[3],683 mL/min/kg
same,IC50,NCI-H1299,730 nM
same,Ki,[4],69 nM
same,Papp,[5],15.3 ×10⁻⁶ cm/s
same,IC50,SKM-1,37 nM
same,Ki,[6],3.2 nM
CCNC(=O)c1cc2c(-c3cc(S(C)(=O)=O)ccc3Oc3c(C)cccc3C)cn(C)c(=O)c2[nH]1,CL free,[1],550 mL/min/kg
same,CL free,[2],650 mL/min/kg
same,CL free,[3],91.7 mL/min/kg
same,IC50,NCI-H1299,790 nM
same,Ki,[4],140 nM
same,Papp,[5],10.7 ×10⁻⁶ cm/s
same,IC50,SKM-1,11 to 12 nM
same,Ki,[6],1.2 nM
CCNC(=O)c1cc2c(-c3cc(S(C)(=O)=O)ccc3Oc3ccc(F)cc3F)cn(C)c(=O)c2[nH]1,CL free,[1],< 91.7 mL/min/kg
same,CL free,[2],< 51.7 mL/min/kg
same,CL free,[3],60 mL/min/kg
same,IC50,NCI-H1299,370 nM
same,Papp,[5],10.8 ×10⁻⁶ cm/s
same,IC50,SKM-1,6.6 nM
same,Ki,[6],1.3 nM
CCNC(=O)c1cc2c(-c3cc(S(=O)(=O)CC)ccc3Oc3c(C)cccc3C(C)(C)C)cn(C)c(=O)c2[nH]1,IC50,NCI-H1299,3200 nM
same,Ki,[4],400 nM
same,IC50,SKM-1,290 nM
same,Ki,[6],15 nM
CCNC(=O)c1cc2c(-c3cc(S(N)(=O)=O)ccc3Oc3c(C)cccc3C)cn(C)c(=O)c2[nH]1,IC50,NCI-H1299,3000 nM
same,Ki,[4],66 nM
same,IC50,SKM-1,7 nM
same,Ki,[6],1.1 nM
CCNC(=O)c1cc2c(-c3cc(S(=O)(=O)CC)ccc3Oc3ccccc3C(C)(C)C)cn(C)c(=O)c2[nH]1,CL free,[2],1430 mL/min/kg
same,CL free,[3],1620 mL/min/kg
same,IC50,NCI-H1299,460 nM
same,Ki,[4],22 nM
same,Papp,[5],5.6 ×10⁻⁶ cm/s
same,IC50,SKM-1,21 nM
same,Ki,[6],2.1 nM
CCNC(=O)c1cc2c(-c3cc(S(=O)(=O)CC)ccc3N3CCc4cccc(C)c43)cn(C)c(=O)c2[nH]1,IC50,NCI-H1299,340 nM
same,Ki,[4],9 nM
same,IC50,SKM-1,4.2 nM
same,Ki,[6],0.5 nM
CCNC(=O)c1cc2c(-c3cc(C4(O)COC4)ccc3Oc3c(C)cc(F)cc3C)cn(C)c(=O)c2[nH]1,CL free,[1],533 mL/min/kg
same,CL free,[2],267 mL/min/kg
same,CL free,[3],350 mL/min/kg
same,IC50,NCI-H1299,2700 nM
same,Papp,[5],1.66 ×10⁻⁶ cm/s
same,IC50,SKM-1,24 nM
same,Ki,[6],1.1 nM
CCNC(=O)c1cc2c(-c3cc(CO)ccc3Oc3c(C)cccc3C)cn(C)c(=O)c2[nH]1,CL free,[1],2330 mL/min/kg
same,CL free,[3],417 mL/min/kg
same,IC50,NCI-H1299,3000 nM
same,Ki,[4],270 nM
same,Papp,[5],1.69 ×10⁻⁶ cm/s
same,IC50,SKM-1,65 nM
same,Ki,[6],1.7 nM
Cc1cc(F)cc(C)c1Oc1ccc(C(C)(C)O)cc1-c1cn(C)c(=O)c2[nH]c(C(=O)NC(C)(C)C)cc12,CL free,[1],8670 mL/min/kg
same,CL free,[2],1450 mL/min/kg
same,CL free,[3],2170 mL/min/kg
same,IC50,NCI-H1299,1500 nM
same,Ki,[4],310 nM
same,IC50,SKM-1,25 nM
same,Ki,[6],1.3 nM
Cc1cc(F)cc(C)c1Oc1ccc(C(C)(C)O)cc1-c1cn(C)c(=O)c2[nH]c(C(=O)NC34CC(C3)C4)cc12,CL free,[1],11800 mL/min/kg
same,CL free,[3],2000 mL/min/kg
same,IC50,NCI-H1299,1100 nM
same,Ki,[4],440 nM
same,Papp,[5],0.97 ×10⁻⁶ cm/s
same,IC50,SKM-1,10 nM
same,Ki,[6],1.3 nM
COc1ccc2c(c1)[C@]13CCCC[C@@H]1[C@H](C2)N(C)CC3 [DEXTROMETHORPHAN],CL free,[2],123 mL/min/kg
CCNC(=O)c1cc2c(-c3cc(S(=O)(=O)CC)ccc3Oc3c(C)cccc3Cl)cn(C)c(=O)c2[nH]1,CL free,[2],2120 mL/min/kg
same,CL free,[3],255 mL/min/kg
same,IC50,NCI-H1299,670 nM
same,Ki,[4],30 nM
same,Papp,[5],2.73 ×10⁻⁶ cm/s
same,IC50,SKM-1,6.2 nM
same,Ki,[6],0.9 nM
CCNC(=O)c1cc2c(-c3cc(C(=O)O)ccc3Oc3c(C)cccc3C)cn(C)c(=O)c2[nH]1,IC50,NCI-H1299,> 10000 nM
same,Ki,[4],300 nM
same,Papp,[5],0.74 ×10⁻⁶ cm/s
same,IC50,SKM-1,3100 nM
same,Ki,[6],2.8 nM
CCNC(=O)c1cc2c(-c3cc(S(=O)(=O)CC)ccc3-c3c(C)cccc3C)cn(C)c(=O)c2[nH]1,CL free,[2],617 mL/min/kg
same,CL free,[3],550 mL/min/kg
same,IC50,NCI-H1299,> 10000 nM
same,Ki,[4],> 12000 nM
same,Papp,[5],9 ×10⁻⁶ cm/s
same,IC50,SKM-1,1300 nM
same,Ki,[6],22 nM
CCNC(=O)c1cc2c(-c3cc(S(=O)(=O)CC)ccc3Oc3c(C)cccc3F)cn(C)c(=O)c2[nH]1,CL free,[2],2530 mL/min/kg
same,CL free,[3],150 mL/min/kg
same,IC50,NCI-H1299,260 nM
same,Ki,[4],13 nM
same,Papp,[5],15.4 ×10⁻⁶ cm/s
same,IC50,SKM-1,2.5 nM
same,Ki,[6],0.9 nM
CCNC(=O)c1cc2c(-c3cc(NS(=O)(=O)CC)ccc3Oc3c(C)cc(F)cc3C)cn(C)c(=O)c2[nH]1,CL free,[1],2000 mL/min/kg
same,CL free,[3],317 mL/min/kg
same,IC50,NCI-H1299,970 nM
same,Ki,[4],49 nM
same,Papp,[5],0.23 ×10⁻⁶ cm/s
same,IC50,SKM-1,42 nM
same,Ki,[6],1.1 nM
CCNC(=O)c1ccc(Oc2c(C)cccc2C)c(-c2cn(C)c(=O)c3[nH]c(C(=O)NCC)cc23)c1,CL free,[1],317 mL/min/kg
same,CL free,[3],217 mL/min/kg
same,IC50,NCI-H1299,1500 nM
same,Ki,[4],130 nM
same,Papp,[5],2.63 ×10⁻⁶ cm/s
same,IC50,SKM-1,19 nM
same,Ki,[6],1.8 nM
